We go through 7 compounds from paper PMC12752627, “Discovery of a Potent and Selective TEAD Degrader with Durable Degradation Activity” (Advanced Science, 2025).

Bounds are passed on as bounds.

Experiment [1] has as its target T1, TEAD1 (Homo sapiens, UniProt P28347+Q96SW2).
T1 construct: endogenous in cells; host or cells: NCI-H1299 (TEAD1-mNeonGreen knock-in)
Briefly: Immunoblot of TEAD1 degradation in TEAD1-mNeonGreen fusion NCI-H1299 cells. The experiment is classed as cell-based. To be noted: 10 nM, 6 h, TEAD1-mNeonGreen NCI-H1299 cells. As to the method:
(§1) Immunoblotting was carried out as previously described.^[ [29] ^] Cells were seeded in 6‐well plates (Yeasen, #84011ES50) at a density of 1 million cells per well. The following day, cells were treated with compounds at the required concentrations, with the DMSO concentration kept below 0.4‰ to prevent toxic effects on the cells. The collected cell pellets were washed three times with PBS (Meilunbio, #MA0015) and resuspended in 120 µL of RIPA lysis buffer (Meilunbio, #MA0151) containing 1% protease inhibitor (Meilunbio, #MB2678‐2). The cells were then sonicated on ice and centrifuged at 12 000 rpm for 15 min at 4 °C to remove cellular debris. Protein concentrations were determined using the BCA Protein Quantification Kit (Meilunbio, #MA0082‐1). The protein samples were normalized, boiled at 99 °C for 10 min, and then subjected to electrophoresis on a 10% SDS‐PAGE gel. The separated protein bands were transferred to nitrocellulose membranes, blocked with TBST containing 5% BSA, and incubated with the indicated primary antibodies. Finally, the blots were imaged using an Amersham Typhoon NIR imager.

Another experiment has as its target T2, CRBN (Homo sapiens, UniProt Q96SW2).
T2 construct: expressed in transfected cells; host or cells: HEK293T
The experiment in a line: Intracellular CRBN binding in NanoLuc-CRBN-overexpressing HEK293T cells. It counts as cell-based. The settings on record: read-out: Cellular CRBN Binding IC50 (nM ± SD). As to the method:
NanoLuc‐CRBN‐overexpressing HEK293T were seeded in 96‐well plates at a density of 2000 per well. The following day, compounds was added to the plate starting from 10 µM for a 3‐fold gradient dilution and incubated for 2 h. […] Finally, the signal was measured using an Envision plate reader (Revvity) and the data were analyzed using the GraphPad Prism 9.5 software.

A further experiment addresses CRBN-DDB1 (Homo sapiens, UniProt Q96SW2). Briefly: CRBN binding assay, biochemical (HTRF). The settings on record: recombinant CRBN-DDB1, 1 h, read-out: Biochemical CRBN Binary Binding IC50 (nM ± SD). As to the method: Next, 400 nL of compound solution (initial concentration 10 µM, followed by a three‐fold gradient dilution) was dispensed into the wells using the positive‐pressure‐based I‐DOT dispenser. After 1 h of incubation at room temperature, the HTRF signal was measured using an Envision plate reader (Revvity). Finally, the data were analyzed using non‐linear regression curves in GraphPad Prism 9.5 software.
On the technique in general: TR-FRET usually uses a lanthanide donor and a delayed reading to cut background.

For experiment [2], the target named is TEAD1 (Homo sapiens, UniProt P28347). The experiment in a line: Immunoblot in wild-type / CRBN-knockout HEK293T cells and rescue experiment. Also noted: endogenous in cells; host or cells: HEK293T wild-type and CRBN-knockout. It counts as cell-based. To be noted: HEK293T cells, 1 h pretreatment. As to the method:
as §1
Background: A western blot detects proteins with antibodies after separation by electrophoresis.

For the next experiment, the system named is 867 cancer cell lines. Briefly: PRISM assay (barcoded cell line screening, 5 days).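 Further: top test concentration 10 mM in eight-point dilution series.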 The experiment is classed as cell-based. As to the method: The principle of the PRISM assay has been described elsewhere and was conducted as previously outlined by the PRISM team at the Broad Institute.^[ [14], [31] ^] In PRISM (MTS027) experiments, KG‐FP‐003 was tested across 867 different cancer cell lines. Cells were treated with eight concentration gradients, ranging from 4.6 nM to […], in triplicate dilutions over a period of five days. Each plate was treated with 20 µM bortezomib as a positive control and DMSO as a negative control. Three replicate experiments were performed for each compound. The resulting data were analyzed using GraphPad PRISM 9.5.

Another experiment has as its system HOS cells. The experiment in a line: Cell viability assay (CTG, 72 h) HOS. It counts as cell-based. The settings on record: 3-day compound treatment. Here is the method:
(§2) Cells were seeded at a density of 1000 cells per well in 96‐well flat‐bottomed cell culture plates and cultured overnight at 37 °C with 5% CO2 to allow for cell attachment. The following day, different concentrations of compounds were added using an I‐DOT dispenser. After 72 h, 25 µL of CellTiter‐Meiluncell Luminescent Cell Viability Reagent (Meilunbio, #PWL111‐2) was added and incubated for 15 min at room temperature. Luminescence signals were then measured using an Envision plate reader (Revvity). Data were analyzed using GraphPad Prism 9.5 software.^[ [30] ^]

For the next experiment, the system named is ES2 cells. The experiment in a line: Cell viability assay (CTG, 72 h) ES2. The experiment is classed as cell-based. The settings on record: 3-day compound treatment. As to the method:
as §2

For another experiment, the system named is KLE cells. The experiment in a line: Cell viability assay (CTG, 72 h) KLE. The experiment is classed as cell-based. To be noted: 3-day compound treatment. As to the method: as §2
Another experiment has as its system A172 cells. The experiment in a line: Cell viability assay (CTG, 72 h) A172. The experiment is classed as cell-based. To be noted: 3-day compound treatment. Here is the method:
as §2

Sequence of CRBN-DDB1 (Q96SW2 whole entry): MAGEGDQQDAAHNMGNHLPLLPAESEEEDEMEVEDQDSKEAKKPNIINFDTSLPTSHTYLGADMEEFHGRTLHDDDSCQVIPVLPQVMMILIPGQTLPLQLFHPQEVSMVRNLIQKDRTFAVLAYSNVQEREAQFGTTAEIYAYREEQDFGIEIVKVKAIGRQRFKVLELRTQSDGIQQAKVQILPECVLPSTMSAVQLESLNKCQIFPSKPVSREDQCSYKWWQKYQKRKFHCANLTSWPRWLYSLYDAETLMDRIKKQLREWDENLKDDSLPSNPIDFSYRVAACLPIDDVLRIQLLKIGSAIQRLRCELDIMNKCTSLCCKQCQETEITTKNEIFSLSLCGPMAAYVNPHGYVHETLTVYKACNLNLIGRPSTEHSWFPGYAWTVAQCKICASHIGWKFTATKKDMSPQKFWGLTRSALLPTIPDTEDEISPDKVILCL
T2 sequence (Q96SW2 whole entry): as above
Sequence of TEAD1 (Homo sapiens, UniProt P28347) (P28347 whole entry): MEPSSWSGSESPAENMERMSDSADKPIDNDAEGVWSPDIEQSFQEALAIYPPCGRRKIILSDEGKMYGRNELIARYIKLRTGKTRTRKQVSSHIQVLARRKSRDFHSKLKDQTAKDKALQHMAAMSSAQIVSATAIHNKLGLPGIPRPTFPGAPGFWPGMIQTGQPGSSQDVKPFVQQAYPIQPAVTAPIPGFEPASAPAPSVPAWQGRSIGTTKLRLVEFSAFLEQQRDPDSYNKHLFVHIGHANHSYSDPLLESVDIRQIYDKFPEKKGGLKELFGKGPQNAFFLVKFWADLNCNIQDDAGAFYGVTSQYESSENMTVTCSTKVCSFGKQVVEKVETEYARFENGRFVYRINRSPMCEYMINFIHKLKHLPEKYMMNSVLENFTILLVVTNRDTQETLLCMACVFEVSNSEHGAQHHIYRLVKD
T1 sequence (P28347 whole entry): as above
T1 sequence (Q96SW2 whole entry): as the sequence (Q96SW2 whole entry) above
T1 sequence (Q16531 2-1140 partner limits assumed): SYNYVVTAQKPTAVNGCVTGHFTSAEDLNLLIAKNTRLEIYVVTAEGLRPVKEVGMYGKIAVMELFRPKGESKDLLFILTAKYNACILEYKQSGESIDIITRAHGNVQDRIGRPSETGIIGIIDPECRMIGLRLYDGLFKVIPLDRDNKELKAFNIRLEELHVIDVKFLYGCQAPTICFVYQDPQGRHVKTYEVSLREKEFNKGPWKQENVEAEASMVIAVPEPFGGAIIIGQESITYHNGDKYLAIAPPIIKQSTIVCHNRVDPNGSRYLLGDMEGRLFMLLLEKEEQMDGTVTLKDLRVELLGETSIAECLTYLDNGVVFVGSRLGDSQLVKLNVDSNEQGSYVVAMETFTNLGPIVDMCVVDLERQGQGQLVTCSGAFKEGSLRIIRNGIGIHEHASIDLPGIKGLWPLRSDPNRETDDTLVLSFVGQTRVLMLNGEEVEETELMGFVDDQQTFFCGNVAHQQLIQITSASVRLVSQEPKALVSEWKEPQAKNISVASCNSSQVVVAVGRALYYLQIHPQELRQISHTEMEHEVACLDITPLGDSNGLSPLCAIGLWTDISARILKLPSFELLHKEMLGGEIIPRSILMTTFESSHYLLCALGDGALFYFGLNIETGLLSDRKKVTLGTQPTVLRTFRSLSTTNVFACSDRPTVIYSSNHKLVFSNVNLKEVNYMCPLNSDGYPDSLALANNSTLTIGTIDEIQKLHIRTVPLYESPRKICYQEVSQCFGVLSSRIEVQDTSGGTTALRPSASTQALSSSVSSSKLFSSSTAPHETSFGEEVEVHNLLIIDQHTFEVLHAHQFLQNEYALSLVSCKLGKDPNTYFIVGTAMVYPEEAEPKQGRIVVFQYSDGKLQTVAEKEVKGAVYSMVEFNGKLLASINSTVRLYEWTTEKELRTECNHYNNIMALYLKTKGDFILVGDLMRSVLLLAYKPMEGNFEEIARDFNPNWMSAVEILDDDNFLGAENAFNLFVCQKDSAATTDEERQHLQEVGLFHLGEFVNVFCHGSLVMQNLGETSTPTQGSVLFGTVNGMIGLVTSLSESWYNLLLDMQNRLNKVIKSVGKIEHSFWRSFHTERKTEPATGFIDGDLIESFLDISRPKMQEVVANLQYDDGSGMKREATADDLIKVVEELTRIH

For `CNC(=O)c1cc2c(c(F)c1-c1c(Cl)c(F)cc3c1C[C@@](CN[C@H]1CC[C@H](C(=O)N4CCC(CC5CCN(C(=O)COc6ccc7c(c6)C(=O)N(C6CCC(=O)NC6=O)C7=O)CC5)CC4)CC1)(c1ccccc1)O3)[C@@H](O)[C@@H](C)C2` (stereo partly drawn) [KG-FP-009], at TEAD1 [1], the “Target degradation by immunoblot” value was “significant target degradation”. Besides, the IC50 was 1380 ± 794 nM on CRBN and 152 ± 12 nM on CRBN-DDB1.

In the case of `CNC(=O)c1cc2c(c(F)c1-c1c(Cl)c(F)cc3c1C[C@@](CN[C@H]1CC[C@H](C(=O)NCCCCC(=O)Nc4ccc(C)c(N5CCC(=O)NC5=O)c4)CC1)(c1ccccc1)O3)[C@@H](O)[C@@H](C)C2` [KG-FP-010], the IC50 on CRBN is 1700 ± 384 nM; on CRBN-DDB1, 474 ± 14 nM.

Regarding `CNC(=O)c1cc2c(c(F)c1-c1c(Cl)c(F)cc3c1C[C@@](CNC(=O)CCCCC(=O)Nc1ccc4c(c1)C(=O)N(C1CCC(=O)NC1=O)C4=O)(c1ccccc1)O3)[C@@H](O)[C@@H](C)C2` (stereo partly drawn) [KG-FP-008], the figures for the IC50 on CRBN and at CRBN-DDB1 were 426 ± 176 nM and 126 ± 47 nM, respectively.

With `CC(C)C[C@H](NC(=O)[C@H](Cc1ccccc1)NC(=O)c1cnccn1)B(O)O` [bortezomib], at TEAD1 [2], the “Rescue: effect of pretreatment on KG-FP-003-mediated TEAD1 degradation” value (shortened to “Rescue: effect of pretreatment”) was “effectively blocked”.

In the case of `Nc1cccc2c1CN(C1CCC(=O)NC1=O)C2=O` (stereo not drawn) [Lenalidomide, lenalidomide], the “Rescue: effect of pretreatment” value on TEAD1 [2] is recorded as “effectively blocked”.

As for `C=C(F)C(=O)N1C[C@@H](Nc2ncccn2)[C@H](OCc2ccc(C(F)(F)F)cc2)C1` [MYF-03-176, reference compound], the “PRISM AUC” value amounted to 0.59 in the experiment on 867 cancer cell lines (Cell line: A172, 5 days); 1.00 in the experiment on 867 cancer cell lines (Cell line: ES2, 5 days); 0.90 in the experiment on 867 cancer cell lines (Cell line: HOS, 5 days); 1.00 with 867 cancer cell lines (Cell line: KLE, 5 days). The IC50 with HOS cells was 922 ± 404 nM; in the experiment on ES2 cells, greater than 2000 nM; in the experiment on KLE cells, 1410 ± 479 nM; with A172 cells, greater than 3000 nM.

Regarding `NS(=O)(=O)OC[C@@H]1C[C@@H](n2ccc3c(N[C@H]4CCc5ccccc54)ncnc32)C[C@@H]1O` [MLN4924], on TEAD1 [2], the “Rescue: effect of pretreatment” value was “effectively blocked”.

Broadly, the IC50 is the concentration that gives 50% inhibition.
